Measured values reported in patent US20020188132A1, “Heteroaryl acetylenic sulfonamide and phosphinic acid amide hydroxamic acid TACE inhibitors” (priority 1999, published 2002).

Tests used:
Format in all cases: biochemical
[1] = target: MMP-9 (Homo sapiens, UniProt P14780); experiment: MMP-9 inhibition (thiopeptide or fluorescent peptide substrate)
Method: (§1) These standard pharmacological test procedures are based on the cleavage of a thiopeptide substrates such as Ac-Pro-Leu-Gly(2-mercapto-4-methyl-pentanoyl)-Leu-Gly-OEt by the matrix metalloproteinases MMP-1, MMP-13 (collagenases) or MMP-9 (gelatinase), which results in the release of a substrate product that reacts calorimetrically with DTNB (5,5′-dithiobis(2-nitro-benzoic acid)). The enzyme activity is measured by the rate of the color increase. The thiopeptide substrate is made up fresh as a 20 mM stock in 100% DMSO and the DTNB is dissolved in 100% DMSO as a 100 mM stock and stored in the dark at room temperature. […] The buffer, enzyme, vehicle or inhibitor, and DTNB/substrate are added in this order to a 96 well plate (total reaction volume of 200 μl) and the increase in color is monitored spectrophotometrically for 5 minutes at 405 nm on a plate reader and the increase in color over time is plotted as a linear line.
(§2) Alternatively, a fluorescent peptide substrate is used. […] Upon cleavage of the substrate by an MMP, the fluorescence that is generated is quantitated on the fluorescence plate reader. […] The reaction is read (excitation 340 nm, emission 444 nm) for 10 min. and the increase in fluorescence over time is plotted as a linear line.
(§3) For either the thiopeptide or fluorescent peptide test procedures, the slope of the line is calculated and represents the reaction rate. […]

[2] = target: T1, MMP-1 (Homo sapiens, UniProt P03956); experiment: MMP-1 inhibition (thiopeptide or fluorescent peptide substrate)
T1 sequence (P03956 100-469): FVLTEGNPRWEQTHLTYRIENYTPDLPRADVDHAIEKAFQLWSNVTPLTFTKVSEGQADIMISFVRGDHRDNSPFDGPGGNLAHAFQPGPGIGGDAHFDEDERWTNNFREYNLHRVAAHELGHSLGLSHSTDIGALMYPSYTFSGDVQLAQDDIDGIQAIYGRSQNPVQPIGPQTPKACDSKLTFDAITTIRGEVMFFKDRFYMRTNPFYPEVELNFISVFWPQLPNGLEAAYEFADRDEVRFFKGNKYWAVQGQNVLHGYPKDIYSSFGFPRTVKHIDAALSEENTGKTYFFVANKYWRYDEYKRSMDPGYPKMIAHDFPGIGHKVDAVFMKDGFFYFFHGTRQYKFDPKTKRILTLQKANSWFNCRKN
Method: as §1, §2, §3

[3] = target: MMP-13 (Homo sapiens, UniProt P45452); experiment: MMP-13 inhibition (thiopeptide or fluorescent peptide substrate)
Method: as §1, §2, §3

[4] = target: TACE (Homo sapiens, UniProt P78536); experiment: TACE inhibition (fluorescent peptidyl substrate)
Method: Using 96-well black microtiter plates, each well receives a solution composed of 10 μL TACE (final concentration 1 μg/mL), 70 μL Tris buffer, pH 7.4 containing 10% glycerol (final concentration 10 mM), and 10 μL of test compound solution in DMSO (final concentration 1 μM, DMSO concentration <1%) and incubated for 10 minutes at room temperature. The reaction is initiated by addition of a fluorescent peptidyl substrate (final concentration 100 μM) to each well and then shaking on a shaker for 5 sec.
The reaction is read (excitation 340 nm, emission 420 nm) for 10 min. and the increase in fluorescence over time is plotted as a linear line. The slope of the line is calculated and represents the reaction rate.
The linearity of the reaction rate is confirmed (r^2>0.85). The mean (x±sem) of the control rate is calculated and compared for statistical significance (p<0.05) with drug-treated rates using Dunnett's multiple comparison test. Dose-response relationships can be generate using multiple doses of drug and IC50 values with 95% CI are estimated using linear regression.

Chain of TACE (P78536 215-824): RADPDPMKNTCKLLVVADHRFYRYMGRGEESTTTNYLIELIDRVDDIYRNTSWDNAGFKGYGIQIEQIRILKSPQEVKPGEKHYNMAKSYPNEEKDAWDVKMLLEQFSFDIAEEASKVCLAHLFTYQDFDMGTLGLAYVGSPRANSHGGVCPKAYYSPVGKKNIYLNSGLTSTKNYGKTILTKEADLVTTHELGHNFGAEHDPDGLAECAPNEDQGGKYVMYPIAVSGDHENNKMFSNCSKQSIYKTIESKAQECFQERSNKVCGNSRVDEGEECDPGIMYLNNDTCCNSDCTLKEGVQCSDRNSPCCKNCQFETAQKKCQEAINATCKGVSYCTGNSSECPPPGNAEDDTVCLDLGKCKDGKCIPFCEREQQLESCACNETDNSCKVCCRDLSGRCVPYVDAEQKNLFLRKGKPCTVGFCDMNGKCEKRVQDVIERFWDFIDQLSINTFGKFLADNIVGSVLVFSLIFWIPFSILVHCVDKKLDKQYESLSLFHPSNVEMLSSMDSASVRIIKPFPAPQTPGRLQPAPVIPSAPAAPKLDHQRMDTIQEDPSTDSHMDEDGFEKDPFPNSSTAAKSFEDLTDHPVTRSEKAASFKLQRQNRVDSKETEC
Chain of MMP-9 (P14780 94-707): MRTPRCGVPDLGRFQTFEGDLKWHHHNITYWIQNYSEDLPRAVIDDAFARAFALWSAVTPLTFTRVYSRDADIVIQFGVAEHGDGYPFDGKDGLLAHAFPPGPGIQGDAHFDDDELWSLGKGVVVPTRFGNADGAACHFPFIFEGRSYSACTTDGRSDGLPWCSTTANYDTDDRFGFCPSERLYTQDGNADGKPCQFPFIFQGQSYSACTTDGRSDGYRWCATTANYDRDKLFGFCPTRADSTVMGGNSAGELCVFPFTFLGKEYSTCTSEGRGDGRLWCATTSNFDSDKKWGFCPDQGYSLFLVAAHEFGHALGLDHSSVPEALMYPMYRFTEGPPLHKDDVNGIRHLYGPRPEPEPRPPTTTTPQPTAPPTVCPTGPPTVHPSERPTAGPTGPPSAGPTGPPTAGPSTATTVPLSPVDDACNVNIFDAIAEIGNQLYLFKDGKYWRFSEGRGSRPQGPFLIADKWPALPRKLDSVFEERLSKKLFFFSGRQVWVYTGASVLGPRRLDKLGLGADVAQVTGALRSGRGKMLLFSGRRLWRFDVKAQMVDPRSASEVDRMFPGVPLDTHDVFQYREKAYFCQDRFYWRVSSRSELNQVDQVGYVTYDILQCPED

IC50 [1] [nM] | IC50 [2] [nM] | IC50 [3] [nM] | IC50 [4] [nM] | SMILES
607 | ~10000 | 478 | 11 | CC#CCOc1ccc(S(=O)(=O)N(C)c2c(C(=O)NO)cc(OC)nc2OC)cc1 [Example 33, 3-[Methyl-(4-but-2-ynyloxy-benzenesulfonyl)-animo]-N-hydroxy-2,6-dimethoxy-isonicotinamide]
– | – | – | 44 | CC#CCOc1ccc(S(=O)(=O)Nc2c(C(=O)NO)cc(OC)nc2OC)cc1 [Example 35, 3-(4-But-2-ynyloxy-benzenesulfonylamino)-N-hydroxy-2,6-dimethoxy-isonicotinamide]
